# Results reported in patent US12600704B2, “Substituted 1,2,4-triazoles and methods of use” (STINGINN LLC, priority 2019, dated 2026).
# Key:
# [1] = test system: STING dependent TBK1 and IRF3 phosphorylation; test: Immunoblot of TBK1/IRF3 phosphorylation in hTERT cells
# Description: Equal amounts of proteins were resolved on sodium dodecyl sulfate (SDS)-Polyacrylamide gels and then transferred to polyvinylidene fluoride (PVDF) membranes (Millipore). After blocking with 5% Blocking Reagent, membranes were incubated with various primary antibodies (and appropriate secondary antibodies). The image was resolved using an enhanced chemiluminescence system ECL (Thermo Scientific) and detected by autoradiography (Kodak).
# STING [2] = test: Type I IFN production in hTERT cells lacking STING (RNAi); type: cell-based, human; conditions: STING RNAi vs control RNAi
# Source text: (§1) Example 2: Examining Agonists of STING. Compounds of the present invention were examined for its ability to activate the type I interferon (IFN) promoter, using a live cell assay. This assay comprised immortalized human fibroblasts (hTERT) that were stably transfected with the type I IFN promoter driving luciferase as well as the CMV promoter driving SEAP (hTERT-pIFNβ-Glu). The live cell assay was developed by the Barber lab and has been patented. The ability of the small molecules to activate the type I IFN promoter and the transcription of luciferase, but not SEAP was assessed. This is since the activation of STING, typically by CDNs, in turn activates the transcription factors NF-κB and IRF3, both of which are required to induce the transcriptional stimulation of the Type I IFN promoter, but not the CMV promoter (IRF3 and NF-κB transcription factor binding sites are not contained in the CMV promoter). Thus, activation of STING by a small molecule identified in the first screen (HTS), results in the level of luciferase increasing relative to SEAP production. […] To confirm this, Compound 28 was administered onto normal hTERT cells and the production of Type I IFN measured using ELISA (FIG. 1C). […] Thus, Compound 28 is a more robust activator of STING compared to CDNs.
# hTERT cells = test: ELISA of type I IFN and cytokines in hTERT cells; type: cell-based, human
# Source text: as §1
# Example 10: Interferon β ELISA analysis. […]
# [3] = molecular target: T1, STING (amino acids 152-379, STING152-379H) (Homo sapiens, UniProt Q86WV6); test: Thermal shift assay (TSA) binding screen with purified STING152-379H
# T1 construct: made in house; host or cells: E. coli BL21 DE3 RIPL Codon Plus
# T1 sequence (Q86WV6 with tags, fused parts or gaps): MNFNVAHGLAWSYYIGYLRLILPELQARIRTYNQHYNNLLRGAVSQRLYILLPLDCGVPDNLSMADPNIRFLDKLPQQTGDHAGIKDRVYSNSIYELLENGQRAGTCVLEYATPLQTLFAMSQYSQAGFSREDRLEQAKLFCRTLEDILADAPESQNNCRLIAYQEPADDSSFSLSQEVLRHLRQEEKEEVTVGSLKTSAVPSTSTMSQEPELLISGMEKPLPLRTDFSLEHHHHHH
# Source text: Example 1: Identification of small molecule activators of STING. An assay was designed to identify small compounds that bound to STING. To achieve this, the carboxyl terminal region of STING (amino acids 152-379) fused to a histidine tag was expressed in bacteria as described in materials and methods. Soluble STING dimers were purified over a nickel affinity column and enriched further using gel filtration. Purified STING was used in a thermal shift assay (TSA) to isolate small molecules that bound to STING. A thermal shift assay quantifies the change in the thermal denaturation temperature of a protein. […] Once this was established, purified STING (5 μl; 1 μM) was mixed with 2.5 μl DMSO and compound (1% DMSO final with 2.5% SYPRO orange. The total reaction mixture was 10 μl in […] HEPES and 100 mM NaCl. SYPRO Orange binds nonspecifically to hydrophobic surfaces. When the protein unfolds, the exposed hydrophobic surfaces bind the dye, resulting in an increase in fluorescence by excluding water. The stability curve and its midpoint value (melting temperature, Tm also known as the temperature of hydrophobic exposure, Th) was obtained by gradually increasing the temperature to unfold the protein and measuring the fluorescence at each point. Curves were measured for STING only and STING+small molecule, and ΔTm was calculated. […]
# [4] = test system: type I IFN promoter (IFNβ promoter) in hTERT-pIFNβ-Glu cells; test: Live cell assay: type I IFN promoter driving luciferase (CMV promoter driving SEAP) in hTERT-pIFNβ-Glu cells; type: cell-based, human
# Source text: Compounds of the present invention were examined for their ability to activate the type I interferon (IFN) promoter, using a live cell assay. This assay comprised immortalized human fibroblasts (hTERT) that were stably transfected with the type I IFN promoter driving luciferase as well as the CMV promoter driving SEAP (hTERT-pIFNβ-Glu), as described in PCT Application No. PCT/US2019/025380, inventor Glen N. Barber, published as WO2019195285, which is herein incorporated by reference in its entirety and for all purposes. The ability of the small molecules to activate the type I IFN promoter and the transcription of luciferase, but not SEAP was assessed. […]
# Solubility was determined using proprietary software, e.g., https://www.researchgate.net/publication/12055195_Internet_Software_for_the_Calculation_of_the_Lipophilicity_and_Aqueous_Solubility_of_Chemical_Compounds, last visited Dec. […]
# Example 2: Examining Agonists of STING. […] The ability of the small molecules to activate the type I IFN promoter and the transcription of luciferase, but not SEAP was assessed. […] To confirm this, Compound 28 was administered onto normal hTERT cells and the production of Type I IFN measured using ELISA (FIG. 1C). […]
# STING [5] = test: Immunofluorescence of STING trafficking and IRF3/NF-κB nuclear localization in hTERT cells; type: cell-based, human
# Source text: Example 2: Examining Agonists of STING. Compounds of the present invention were examined for its ability to activate the type I interferon (IFN) promoter, using a live cell assay. This assay comprised immortalized human fibroblasts (hTERT) that were stably transfected with the type I IFN promoter driving luciferase as well as the CMV promoter driving SEAP (hTERT-pIFNβ-Glu). The live cell assay was developed by the Barber lab and has been patented. The ability of the small molecules to activate the type I IFN promoter and the transcription of luciferase, but not SEAP was assessed. This is since the activation of STING, typically by CDNs, in turn activates the transcription factors NF-κB and IRF3, both of which are required to induce the transcriptional stimulation of the Type I IFN promoter, but not the CMV promoter (IRF3 and NF-κB transcription factor binding sites are not contained in the CMV promoter). […] To confirm this, Compound 28 was administered onto normal hTERT cells and the production of Type I IFN measured using ELISA (FIG. 1C). […]
# Example 11: Immunofluorescence microscopy. […] Immunostaining was performed with rabbit-anti-STING polyclonal, rabbit-anti-IRF3 (Santa Cruz Biotechnology) or rabbit-anti-p65 (Cell Signaling) followed by fluorescence conjugated secondary antibodies (FITC-goat-anti-rabbit) (Invitrogen). […]
Molecule,Activation/phosphorylation of TBK1 (and IRF3) [1],Type I IFN production in hTERT cells lacking STING (STING [2]),"Production of cytokines IL6, IL8 and MCP-1 (hTERT cells; hTERT cells)",Binding to STING [3],Activation of the type I IFN promoter (luciferase but not SEAP) [4],"fold induction at 50 µM ([4]; Homo sapiens, 50 μM, 0.5% DMSO, luciferase, approx. 24 h (FIGS. 2A-C) or approx. 12 h (FIGS. 3A-B), read-out: Activity (Fold changes of IFNβ promoter activity at 50 μM))",STING trafficking and IRF3/NF-κB activation and nuclear localization (STING [5]),"Duration of STING activation (STING [5]; STING trafficking, nuclear localization of NF-κB and IRF3)",Production of type I IFN (hTERT cells; human fibroblasts (hTERT))
"CCc1ccc(-c2nnc(SC(C)C(=O)c3ccccc3)[nH]2)cc1 (stereo not drawn) [Compound 28, 2-((5-(4-ethylphenyl)-4H-1,2,4-triazol-3-yl)thio)-1-phenylpropan-1-one]",able to activate TBK-1,unable to produce type I IFN,"the production of cytokines IL6, IL8 and MCP-1",can bind to and specifically activate STING signaling,exhibited the ability to activate the type I IFN promoter in hTERT-pIFNβ-Glu and induce the expression of luciferase but not SEAP,8,induces STING trafficking and IRF3/NF-κB activation and nuclear localization in hTERT cells,over 24 hours,–
"2-((5-(4-ethylphenyl)-4H-1,2,4-triazol-3-yl)thio)-1-phenylpropan-1-one [Compound 28]",–,–,–,–,–,–,–,–,induce the production of type I IFN and other cytokines
